Source: patent US7399493B2, “Anti-irritant botanicals” (priority 2004, dated 2008)

Experiments:
[1] = test system: irritating action of alpha-hydroxy acids (lactic and glycolic acids); details: Rosmarinic acid 5%; cited from earlier work
HaCat keratinocytes = test: Retinoid-stimulated autocrine (RSA) clonal growth assay; format: cell-based, human; details: 10 μM, 48 hours after treatment, relative to untreated control
Protocol: Since retinoids irritate skin leading to epidermal hyperplasia, it is the inventors idea that plant extracts that act as inhibitors of retinoid -stimulated autocrine growth are themselves anti-irritants. This hypothesis was tested using an in vitro keratinocyte culture model.
An immortalized line of human epidermal kertatinocytes, HaCat keratinocytes, can be cultured in a serum-free culture medium. Sterile Petri dishes (35 mm^2) are seeded at 5,000 cells per cm^2 and placed in a humidified CO2 incubator at 37° C. for 3-5 days or until the culture reaches about 30% confluent monolayer growth. The dishes are washed once with ice-cold serum-free media lacking EGF and insulin, and refed 2.5 ml of serum-free culture medium containing 5 ug/ml insulin and retinyl acetate (RA, 3×10^−8 M).—Duplicate control dishes are fixed and stained with 0.2% crystal violet to record the—amount of clonal growth prior to refeeding with fresh RA-containing medium. Test—dishes refed RA and insulin are split into three groups in duplicate. Group A is refed on the RA plus insulin medium. Group B is refed RA plus insulin medium and a TRK inhibitor (PD 15356), and Group C is refed medium containing RA plus insulin and from 0.1 to 5% of a hydroalcoholic botanical extract. All dishes are adjusted to have the same final concentration of alcohol (1%). All dishes are placed back in the incubator for 2 and 4 days. […]

O=C(/C=C/c1ccc(O)c(O)c1)O[C@H](Cc1ccc(O)c(O)c1)C(=O)O [Rosmarinic acid]
reduction of the irritating action of alpha-hydroxy acids [1]: reduce by more than three-fold

O.O.O=c1c(O)c(-c2ccc(O)c(O)c2)oc2cc(O)cc(O)c12 [quercetin dihydrate]
inhibition of RSA clonal growth (HaCat keratinocytes): completely inhibited
